Here are results for 10 molecules from publication PMC8145110, “Design, Synthesis, and Antibacterial Screening of Some Novel Heteroaryl-Based Ciprofloxacin Derivatives as DNA Gyrase and Topoisomerase IV Inhibitors” (Pharmaceuticals, 2021).

By melting point is commonly meant the temperature of the solid-liquid transition. In the case of `O=C(O)c1cn(C2CC2)c2cc(N3CCN(Cn4nc(-c5ccccc5)oc4=S)CC3)c(F)cc2c1=O` [Compound 1, 1-Cyclopropyl-6-fluoro-4-oxo-7-[4-(5-phenyl-2-thioxo[1,3,4]oxadiazol-3-yl-methyl)-piperazin-1-yl]-1,4-dihydro-quinoline-3-carboxylic acid], the melting point turned out to be 228 °C.

Turning to `O=C(O)c1cn(C2CC2)c2cc(N3CCN(Cn4nc(-c5ccccc5)n(-c5ccccc5)c4=S)CC3)c(F)cc2c1=O` [Compound 7, 1-Cyclopropyl-7-[4-(3,4-diphenyl-5-thioxo-4,5-dihydro-[1,2,4]triazol-1-ylmethyl)-piperazin-1-yl]-6-fluoro-4-oxo-1,4-dihydro-quinoline-3-carboxylic acid], the melting point is 288 °C.

For the molecule `O=C(O)c1cn(C2CC2)c2cc(N3CCN(Cn4nc(-c5ccc6ccccc6c5)n(-c5ccccc5)c4=S)CC3)c(F)cc2c1=O` [Compound 9, 1-Cyclopropyl-6-fluoro-7-[4-(3-naphthalen-2-yl-4-phenyl-5-thioxo-4,5-dihydro-[1,2,4]triazol-1-ylmethyl)-piperazin-1-yl]-4-oxo-1,4-dihydro-quinoline-3-carboxylic acid], the melting point turned out to be 262 °C.

`NN1C(=S)N(CN2CCN(c3cc4c(cc3F)c(=O)c(C(=O)O)cn4C3CC3)CC2)C(=O)C1(c1ccccc1)c1ccccc1` [Compound 14, 7-[4-(3-Amino-5-oxo-4,4-diphenyl-2-thioxo-imidazolidin-1-ylmethyl)-piperazin-1-yl]-1-cyclopropyl-6-fluoro-4-oxo-1,4-dihydro-quinoline-3-carboxylic acid] registered a melting point of 234 °C.

The molecule `O=C(O)c1cn(C2CC2)c2cc(N3CCN(Cn4nc(-c5ccccn5)n(-c5ccccc5)c4=S)CC3)c(F)cc2c1=O` [Compound 10, 1-Cyclopropyl-6-fluoro-4-oxo-7-[4-(4-phenyl-3-pyridin-2-yl-5-thioxo-4,5-dihydro-[1,2,4]triazol-1-ylmethyl)-piperazin-1-yl]-1,4-dihydro-quinoline-3-carboxylic acid] displayed a melting point of 270 °C.

`O=C(O)c1cn(C2CC2)c2cc(N3CCN(CN4C(=O)CCC4=O)CC3)c(F)cc2c1=O` [Compound 21, 1-Cyclopropyl-7-[4-(2,5-dioxo-pyrrolidin-1-ylmethyl)-piperazin-1-yl]-6-fluoro-4-oxo-1,4-dihydro-quinoline-3-carboxylic acid] came in with a melting point of 214 °C.

In turn, `O=C(O)c1cn(C2CC2)c2cc(N3CCN(CN4C(=O)SC(=Cc5ccc(Cl)cc5)C4=O)CC3)c(F)cc2c1=O` [Compound 17, 7-{4-[5-(4-Chloro-benzylidene)-2,4-dioxo-thiazolidin-3-ylmethyl]-piperazin-1-yl}-1-cyclopropyl-6-fluoro-4-oxo-1,4-dihydro-quinoline-3-carboxylic acid] displayed a melting point of 244 °C.

In turn, `COc1ccc(C=C2SC(=O)N(CN3CCN(c4cc5c(cc4F)c(=O)c(C(=O)O)cn5C4CC4)CC3)C2=O)cc1` [Compound 18, 1-Cyclopropyl-6-fluoro-7-{4-[5-(4-methoxy-benzylidene)-2,4-dioxo-thiazolidin-3-ylmethyl]-piperazin-1-yl}-4-oxo-1,4-dihydro-quinoline-3-carboxylic acid] yielded a melting point of 251 °C.

`O=C(O)c1cn(C2CC2)c2cc(N3CCN(Cn4nc(-c5ccccc5Cl)n(-c5ccccc5)c4=S)CC3)c(F)cc2c1=O` [Compound 8, 7-{4-[3-(2-Chloro-phenyl)-4-phenyl-5-thioxo-4,5-dihydro-[1,2,4]triazol-1-ylmethyl]-piperazin-1-yl}-1-cyclopropyl-6-fluoro-4-oxo-1,4-dihydro-quinoline-3-carboxylic acid] had a melting point of 214 °C.

Molecule `O=C(O)c1cn(C2CC2)c2cc(N3CCN(Cn4nc(-c5cccnc5)n(-c5ccccc5)c4=S)CC3)c(F)cc2c1=O` [Compound 11, 1-Cyclopropyl-6-fluoro-4-oxo-7-[4-(4-phenyl-3-pyridin-3-yl-5-thioxo-4,5-dihydro-[1,2,4]triazol-1-ylmethyl)-piperazin-1-yl]-1,4-dihydro-quinoline-3-carboxylic acid] yielded a melting point of 280 °C.
